Among the data in PubChem BioAssay (NCI) are TGI values, retold here.

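Dose response: 5 concentrations. Exposure: 48 h. Format: 96-well plates. Endpoint: linear interpolation; highest concentration if not reached. At the TGI there is no net growth.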

What all share (assay): DTP human tumour cell line panel, 48 h
The test system of assay [1] is DU-145 prostate.
Assay [2] deals with HCT-116 colon.
The subject of assay [3] is HOP-62 NSCLC.
For assay [4], the system named is HS 578T breast.
Assay [5] has as its system LOX IMVI melanoma.
Assay [6] deals with MALME-3M melanoma.
In assay [7] the test system is NCI-H460 lung.
The test system of assay [8] is NCI/ADR-RES ovarian.
Assay [9] concerns SK-MEL-2 melanoma.
Assay [10] deals with SNB-19 CNS.
Assay [11] relates to UACC-257 melanoma.

As to `O=C(CCCC1Cc2ccccc2C1=O)c1ccccc1` (stereo not drawn), the TGI in [1], in assay [2], in assay [3], in assay [4], in assay [5] and in assay [6] was more than 100 µM throughout. The TGI in [7] is more than 100 µM; in assay [8] it was 84.6 µM; in [9] it was more than 100 µM; in assay [10], more than 100 µM; in assay [11], more than 100 µM.

As to `Cc1ccc(S(=O)(=O)N(CC(O)c2ccccc2)c2ccccc2F)cc1` (stereo not drawn), the total growth inhibition concentration (TGI) in assay [1] was 32.2 µM; in assay [2] it was 26.4 µM; in assay [3], 33.8 µM; in assay [4] it was 41.1 µM; in [5], 31.5 µM; in assay [6], 34.1 µM. Moreover, the TGI in assay [7] amounted to 32.5 µM; in assay [8] it was 35.1 µM; in assay [9], 32.1 µM; in assay [10] it was 37.5 µM; in assay [11], 16.1 µM.

Take `O=C1CSC(c2cccc(Cl)c2)N1c1c(O)c(Cl)cc(Br)c1Cl` (stereo not drawn): the TGI was more than 100 µM in assay [1]; 28.8 µM in assay [2]; more than 100 µM in [3]; more than 100 µM in assay [4]; 29.8 µM in assay [5]; more than 100 µM in assay [6]. Further, the TGI is more than 100 µM in [7]; more than 100 µM in assay [8]; 29 µM in assay [9]; more than 100 µM in assay [10]; 67.4 µM in assay [11].

For `COC(=O)c1c(O)ccc2c1c1c(n2Cc2ccc(OC)cc2)C(=O)c2ccccc2C1=O`, the TGI in assay [1] was 52.5 µM; in assay [2], 19.7 µM; in assay [3], 33.2 µM; in assay [4], 58.1 µM; in [5], 23.2 µM; in [6], 64.3 µM. The TGI is 33.3 µM in assay [7]; 37.2 µM in assay [8]; 25.6 µM in assay [9]; more than 100 µM in assay [10]; 94.3 µM in assay [11].

As to `CC(C)=CCC/C(=C\CC/C(=C\CCc1ccoc1)C(=O)O)C(=O)O`, the TGI in assay [1], in [2], in [3], in [4], in assay [5] and in [6] was more than 100 µM each time. For the same molecule, the TGI in [8], in assay [9], in assay [10] and in assay [11] was more than 100 µM throughout.

For `C/C=C1/CN2[C@@H](C3=C[C@@H]4[C@@H]5N(C3=O)c3ccccc3[C@@]53CCN5C/C(=C/C)[C@@H]4C[C@H]53)C[C@@]34c5ccccc5N5C(=O)CC=C([C@H]1C[C@H]23)[C@H]54`, the TGI in [1] came to 22.1 µM; in assay [2] it was 9.07 µM; in assay [3], 17.5 µM; in [4], 17.3 µM; in assay [6], 12.5 µM; in assay [7], 15.4 µM. Also, the TGI was determined as 33.6 µM in assay [8], 11.6 µM in [9], 14.7 µM in assay [10] and 2.9 µM in assay [11].

`Fc1ccc(C2NC(=S)NC3=C2CCOc2c3ccc3ccccc23)cc1` (stereo not drawn): the TGI in assay [1] is more than 100 µM; in [2], 30.1 µM; in assay [3], more than 100 µM; in [4], more than 100 µM; in assay [6], more than 100 µM; in assay [7], more than 100 µM. Also, the TGI was 76.2 µM in [8], more than 100 µM in assay [9], more than 100 µM in assay [10] and more than 100 µM in assay [11].

Regarding `N#CCN1CCCCCc2ccccc21`, the TGI in assay [1], in assay [2], in assay [3], in assay [4], in assay [6] and in [7] was more than 100 µM in each case. Moreover, the TGI in [8], in [10] and in assay [11] was more than 100 µM each time.

As to `CCOP(=O)(CC1CC(O)(CNc2cc(Cl)nc(N)n2)C1)OCC` (stereo not drawn), the TGI in [1], in [2], in assay [3], in assay [4], in [5] and in assay [6] was more than 100 µM in each case. Also, the TGI in [7], in [8], in assay [9] and in assay [11] was more than 100 µM each time.

Turning to `Cc1c(C)c2c(c(N)c1C#N)C(=O)N(OS(=O)(=O)c1ccccc1)C2=O`, the TGI in assay [1] was 64.3 µM; in assay [2], 68.1 µM; in [4] it was more than 100 µM; in assay [5] it was 55.1 µM; in assay [6] it was 31.8 µM; in assay [7], more than 100 µM. Moreover, the TGI in assay [8] is 58.9 µM; in assay [9], more than 100 µM; in assay [10], more than 100 µM; in assay [11], 68 µM.

Consider `CCOC(=O)c1[nH]cnc1/N=N/N(C)N`, for which the TGI in assay [1], in assay [2], in [3], in assay [4], in assay [5] and in assay [6] was more than 100 µM throughout. Also, the TGI in assay [7], in assay [8], in assay [9] and in [11] was more than 100 µM in each case.

Take `c1nncn1C12C3C4C5C3C1C5C42` (stereo not drawn): the TGI in assay [1], in assay [2], in assay [3], in [4], in assay [5] and in [7] was more than 100 µM in each case. For the same molecule, the concentration for total growth inhibition (TGI) in assay [8], in assay [9], in [10] and in assay [11] was more than 100 µM in each case.

On to `Cc1ccc(C(=O)Cc2nc3ncccc3[nH]c2=O)cc1`, for which the TGI in [1] is more than 100 µM; in assay [2], 70.4 µM; in [3] it was 48.4 µM; in assay [4], 71.3 µM; in assay [6] it was 72.3 µM; in [7], more than 100 µM. Also, the TGI in [8], in assay [9], in [10] and in assay [11] was more than 100 µM each time.

The term TGI denotes the concentration giving total growth inhibition. Read a high TGI as less potent growth arrest.
